How the values were obtained:
[1] = target: T1, Purine nucleoside phosphorylase (Homo sapiens, UniProt P00491); assay: Inhibition of Purine nucleoside phosphorylase was evaluated against the enzyme from Human erythrocytic in 50 mM phosphate; type: tissue-based
T1 sequence (P00491 whole entry): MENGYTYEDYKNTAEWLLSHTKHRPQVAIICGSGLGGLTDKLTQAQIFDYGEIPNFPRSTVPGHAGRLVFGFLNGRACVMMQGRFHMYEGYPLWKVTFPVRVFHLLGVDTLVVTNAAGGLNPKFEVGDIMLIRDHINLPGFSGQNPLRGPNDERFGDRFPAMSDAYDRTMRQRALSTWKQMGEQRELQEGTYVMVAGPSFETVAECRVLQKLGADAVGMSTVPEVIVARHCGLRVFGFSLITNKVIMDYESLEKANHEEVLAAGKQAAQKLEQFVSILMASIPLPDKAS

[2] = target: T2, Purine nucleoside phosphorylase (Bos taurus, UniProt P55859); assay: Inhibition of Purine nucleoside phosphorylase was evaluated against the enzyme from calf spleen in 50 mM phosphate
T2 sequence (P55859 whole entry): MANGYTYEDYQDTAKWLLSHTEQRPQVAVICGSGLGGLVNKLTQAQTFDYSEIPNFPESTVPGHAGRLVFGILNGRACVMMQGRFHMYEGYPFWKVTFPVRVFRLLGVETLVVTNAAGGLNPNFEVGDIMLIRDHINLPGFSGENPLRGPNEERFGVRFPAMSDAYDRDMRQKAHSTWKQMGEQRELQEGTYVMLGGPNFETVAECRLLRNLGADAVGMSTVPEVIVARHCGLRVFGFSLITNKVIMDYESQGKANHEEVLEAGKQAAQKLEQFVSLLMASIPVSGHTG

[3] = target: T2, Purine nucleoside phosphorylase; assay: Inhibition of purine nucleoside phosphorylase against the enzyme from calf spleen in 1 mM phosphate
[4] = target: T2, Purine nucleoside phosphorylase; assay: Inhibition of Purine nucleoside phosphorylase was evaluated against the enzyme from calf spleen in 1 mM phosphate; type: tissue-based

`Nc1nc(O)c2c(n1)CC(NCc1ccccc1)=N2` gave an IC50 [1] of 850 nM.

For `Nc1nc(O)c2[nH]cc(Cc3ccccc3Cl)c2n1`, the IC50 [2] was 2520 nM and the IC50 [3] was 120 nM.

`Nc1nc(O)c2[nH]cc(Cc3ccsc3)c2n1` gave an IC50 [3] of 25 nM.

Work on `Cc1ccsc1CNC1=Nc2c(O)nc(N)nc2C1` yielded an IC50 [1] of 4050 nM.

Molecule `Nc1nc(O)c2c(n1)CC(NCc1ccsc1)=N2` has an IC50 [1] of 630 nM.

In the case of `Nc1nc2c(Cc3cccc(Cl)c3)c[nH]c2c(=O)[nH]1`, the IC50 [2] is reported as 150 nM and the IC50 [3] is reported as 20 nM.

`Nc1nc2nc(NCc3ccccc3)[nH]c2c(=O)[nH]1` gave an IC50 [1] of 470 nM.

`Nc1nc(O)c2c(n1)CC(c1cccnc1)=N2` was tested, and the IC50 [2] was 0.16 nM.

Molecule `Nc1nc(O)c2c(n1)CC(NCc1ccco1)=N2` has an IC50 [1] of 750 nM.

In the case of `Nc1nc(O)c2c(n1)CC(Cc1ccco1)=N2`, the IC50 [1] is reported as 57 nM.

In the case of `Nc1nc2c(Cc3ccc(I)cc3)c[nH]c2c(=O)[nH]1`, the IC50 [2] is reported as 270 nM and the IC50 [3] is reported as 23 nM.

`Nc1nc2nc(NCc3ccsc3)[nH]c2c(=O)[nH]1` gave an IC50 [1] of 85 nM.

In the case of `Nc1nc2c(Cc3cccc(Oc4ccccc4)c3)c[nH]c2c(=O)[nH]1`, the IC50 [2] is reported as 740 nM.

`Nc1nc(O)c2c(n1)CC(NCc1cccs1)=N2` gave an IC50 [1] of 1000 nM.

With `NC1=NC(=O)C2NC(N)=C(Cc3ccsc3)C2N1` (configuration not stated) the IC50 [3] was 0.63 nM.

`Nc1nc(O)c2c(n1)CC(Cc1ccccc1)=N2` was tested, and the IC50 [1] was 85 nM.

Work on `Nc1nc(O)c2[nH]c(Cc3ccccc3)nc2n1` yielded an IC50 [1] of 29600 nM.

`COc1cccc(Cc2c[nH]c3c(O)nc(N)nc23)c1` gave an IC50 [2] of 660 nM and an IC50 [3] of 82 nM.

Molecule `Nc1nc(O)c2[nH]c(Nc3cccnc3)nc2n1` has an IC50 [1] of 21900 nM.

Molecule `Nc1nc2c(Cc3ccc(Cl)c(Cl)c3)c[nH]c2c(=O)[nH]1` has an IC50 [2] of 250 nM and an IC50 [3] of 17 nM.

For `Nc1nc2c(Cc3ccccc3O)c[nH]c2c(=O)[nH]1`, the IC50 [2] was 2000 nM and the IC50 [3] was 270 nM.

`Nc1nc(O)c2[nH]cc(Cc3ccc(O)cc3)c2n1` gave an IC50 [2] of 2300 nM and an IC50 [3] of 260 nM.

`Nc1nc2c(Cc3cccc(F)c3)c[nH]c2c(=O)[nH]1` showed an IC50 [2] of 220 nM and an IC50 [3] of 24 nM.

In the case of `Nc1nc2c(Cc3cccnc3)c[nH]c2c(=O)[nH]1` [PELDESINE], the IC50 [2] is reported as 190 nM and the IC50 [3] is reported as 25 nM.

Work on `Cc1ccsc1Cc1nc2nc(N)[nH]c(=O)c2[nH]1` yielded an IC50 [1] of 47600 nM.

For `Nc1nc(O)c2[nH]c(Cc3ccco3)nc2n1`, the IC50 [1] was 17900 nM.

Work on `NC1=NC(=O)C2NC=C(Cc3ccccc3)C2N1` (configuration not stated) yielded a Ki [4] of 12 nM and a Ki [2] of 100 nM.

In the case of `Nc1nc(O)c2[nH]c(NCc3ccco3)nc2n1`, the IC50 [1] is reported as 250 nM.

With `Nc1nc(O)c2c(n1)CC(Cc1cccs1)=N2` the IC50 [1] was 30 nM.

Molecule `Nc1nc(O)c2[nH]c(Cc3cccs3)nc2n1` has an IC50 [1] of 11000 nM.

For `NC1=NC(=O)C2NC=C(Cc3ccsc3)C2N1` (configuration not stated), the Ki [4] was 15 nM and the IC50 [3] was 0.067 nM.

`Nc1nc(O)c2[nH]c(Cc3ccsc3)nc2n1` showed an IC50 [1] of 11000 nM.

Molecule `Cc1ccsc1CC1=Nc2c(O)nc(N)nc2C1` has an IC50 [1] of 47600 nM.

Molecule `Nc1nc(O)c2c(n1)CC(Cc1ccsc1)=N2` has an IC50 [1] of 67 nM.

`Nc1nc2nc(-c3cccnc3)[nH]c2c(=O)[nH]1` gave an IC50 [1] of 57000 nM.

`Nc1nc(O)c2[nH]cc(Cc3cc(Cl)cc(Cl)c3Cl)c2n1` gave an IC50 [2] of 10000 nM and an IC50 [3] of 240 nM.

`Nc1nc(O)c2[nH]c(NCc3cccs3)nc2n1` was tested, and the IC50 [1] was 160 nM.

`Cc1cccc(Cc2c[nH]c3c(=O)[nH]c(N)nc23)c1` showed an IC50 [2] of 270 nM and an IC50 [3] of 57 nM.

In the case of `Nc1nc(O)c2[nH]cc(Cc3ccco3)c2n1`, the IC50 [3] is reported as 83 nM.

`Cc1ccsc1CNc1nc2[nH]c(N)nc(O)c-2n1` showed an IC50 [1] of 4050 nM.

For `Nc1nc(O)c2nc(N)n(Cc3cccs3)c2n1`, the IC50 [2] was 160 nM and the IC50 [3] was 160 nM.

`Nc1nc2c(Cc3cccc(C(F)(F)F)c3)c[nH]c2c(=O)[nH]1` gave an IC50 [2] of 190 nM and an IC50 [3] of 36 nM.

From ChEMBL document CHEMBL1126675, “Structure-based design of inhibitors of purine nucleoside phosphorylase. 1. 9-(arylmethyl) derivatives of 9-deazaguanine” (J Med Chem, 1993)
